The test system of assay [1] is RS1-10, HEK-293T cells. The assay can be described thus: RS1-10 performance in HEK-293T cells. In kind it is cell-based, human. The settings on record: CMV promoter, 18 hours, FIG. 10A. Here is the method: Human cell line HEK-293T cells or NIH-3T3 mouse fibroblast cell line cells were cultured in DMEM+10% FBS, collected after trypsinization, and then dispensed into 96-well plates (cell culture-treated). Each well of the plate was seeded with 1.0×10^5 cells in 100 μL culture medium. After a 1-hour incubation in the tissue culture incubator (5% CO2, 37 degrees C.), plasmid DNA was complexed with a transfection reagent, such as Lipofectamine 3000, and added to respective wells on the plate. Each well received an equivalent of 100 ng of plasmid DNA complexed with 0.15 μL Lipofectamine 3000. Triplicate wells were used for each condition tested in the experiment. The plasmid utilized in the experiments for HEK-293T cells and NIH-3T3 mouse fibroblast cells encoded a CMV promoter upstream of the RS1-10 construct that controlled the expression of a Firefly Luciferase gene followed by a SV40 polyadenylation signal. After a 10-minute incubation at room temperature, either DMSO vehicle or 24 A at specified doses was added to the wells of the plate. Plates were then incubated for 18 hours in a tissue culture incubator. Endpoint analysis was performed by adding 100 uL of a Luciferase substrate, such as Steady-Luc Firefly Luciferase substrate, to each well of the assay plate. […] Finally, the luminescent signal from each well was measured with a plate reader. […]

Assay [2] deals with RS4-1 and variants. The assay can be described thus: Luciferase induction assay, RS4-1 and variants in HEK-293T cells. The format is cell-based, human. The settings on record: 18 hours, FIGS. 15A, 15B. On the procedure: HEK-293T cells were cultured in DMEM+10% FBS, collected after trypsinization, and dispensed into 96-well plates (cell culture-treated). Each well of the plate was seeded with 1.0×10^5 cells in 100 μL culture medium. After a 1-hour incubation in the tissue culture incubator (5% CO2, 37° C.), plasmid DNA was complexed with a transfection reagent, such as Lipofectamine 3000, and added to respective wells on the plate. Each well received 100 ng of plasmid DNA complexed with 0.15 μL Lipofectamine 3000. The plasmids utilized in the experiment encoded a CMV promoter upstream of the RS4-1 construct and variants that controlled the expression of a Firefly Luciferase gene followed by a SV40 polyadenylation signal. After a 10-minute incubation at room temperature, either DMSO vehicle or 24 A at specified doses was added to the wells of the plate. Plates were then incubated for 18 hours in a tissue culture incubator. Endpoint analysis was performed by adding 100 uL of a Luciferase substrate, such as Steady-Luc Firefly Luciferase substrate, to each well of the assay plate. The liquid contents of each was transferred to a 96-well plate, mixed again for 2 min on an orbital shaker, and incubated at room temperature for 5 min. Finally, the luminescent signal from each well was measured with a plate reader. […]

For assay [3], the system named is RS1-10, Flp-In-293 cells. The assay can be described thus: Comparison of RS1-10 Flp-In cell line with constitutive Flp-In cell line. In kind it is cell-based. As to conditions: Homo sapiens, 7 nM, 18 hours, FIG. 9G, read-out: luciferase signal relative to constitutively expressing cell line as 100%. On the procedure: Single-copy insertion of RSI-10 sequence and subsequent cell-line generation was performed in Flp-In-293 cells according to manufacturer's protocols. The RS1-10 sequence fused to a Firefly Luciferase gene was cloned into a Flp-In compatible pcDNA5/FRT expression vector with a CMV promoter and BGH polyadenylation signal. The resulting Flp-In cell line carried a single-copy expression cassette of RS1-10 integrated into the genome. Similarly, a cell line constitutively expressing Firefly Luciferase from a single-copy genomic insertion was generated in Flp-In-293 cells. For the constitutive cell line, only the Firefly Luciferase gene was cloned into the pcDNA5/FRT expression vector that was used to generate the single-copy genomic insertion. Both cell lines were cultured in DMEM+10% FBS, collected after trypsinization, and then dispensed into 96-well plates (cell culture-treated). Each well of the plate was seeded with 1.0×10^5 cells in 100 μL culture medium. Subsequently, either DMSO vehicle or 24 A at specified doses was added to the wells of the plate containing the RS1-10 Flp-In 293 cells. Triplicate wells were used for each condition tested in the experiment. Plates were then incubated for 18 hours in a tissue culture incubator (5% CO2, 37 degrees C.). […]

For assay [4], the system named is RS1-10 and RS1-X1. The experiment in a line: Luminescence of RS1-10 and RS1-X1 in HEK-293T cells. The settings on record: 85 nM, 24 hours, RS1-X1 vs RS1-10, FIG. 8B. The format is cell-based, human. On the procedure:
A plasmid pool that was transfected into HEK-293T cells was treated for 24 hours with splice modulator 24 A at a concentration of 85 nM. RS1-10 was the starting minigene sequence and a variant switch sequence was identified from the switch sequence screen containing a 28 nucleotide intronic deletion compared to the RS1-10 sequence. […]. RS1-10 controlling a firefly luciferase gene or RS1-X1 controlling a firefly luciferase gene were cloned into individual expression plasmids containing a CMV promoter. HEK 293T cells were transfected with either the RS1-10 or RST-XT expression plasmid and were then treated for 24 hours with 85 nM 24 A while incubated in a tissue culture incubator (37° C., 5% CO2). The luminescence was measured as an endpoint analysis by adding 100 μL of a Luciferase substrate, such as Steady-Luc Firefly Luciferase substrate, to each well of the assay plate. The liquid contents of each well was transferred to a 96-well plate, mixed again for 2 min on an orbital shaker, and incubated at room temperature for 5 min. Finally, the luminescent signal from each well was measured with a plate reader (FIG. 8B).

For the compound `CCN1CC(c2ccc(-c3ccc(-c4ccc5nn(C)cc5c4)cc3O)nn2)C1` [Compound 24A, 2-[6-(1-ethylazetidin-3-yl)pyridazin-3-yl]-5-(2-methyl-2H-indazol-5-yl)phenol], the results for the fold-induction of luciferase result in assay [1] and in assay [2] were “increasing fold-induction of luciferase with increasing concentrations of 24 A” and “increasing fold-induction of luciferase with increasing concentrations”, respectively. Also, the activity at 0.007 µM in assay [3] was no less than 60%. In addition, the “luminescence (RLU)” value in assay [4] is reported as “RS1-X1 produced a higher luminescence (RLU) than RS1-10”.
